The text below walks through data of article PMC13159116, “Affinity‐Based Interactome Mapping of Inositol Pyrophosphates Reveals 4/6‐PP‐InsP5‐Binding Proteins in Plants” (Advanced Science, 2026).

Broadly, the Kd is the constant that tells how readily two partners part at equilibrium.

This experiment concerns the target T1, AtFHA2 (Arabidopsis thaliana, UniProt Q9SFV2).
T1 construct: gene FHA2; recombinant AtFHA2 (AT3G07220.1)
T1 sequence (Q9SFV2 2-320): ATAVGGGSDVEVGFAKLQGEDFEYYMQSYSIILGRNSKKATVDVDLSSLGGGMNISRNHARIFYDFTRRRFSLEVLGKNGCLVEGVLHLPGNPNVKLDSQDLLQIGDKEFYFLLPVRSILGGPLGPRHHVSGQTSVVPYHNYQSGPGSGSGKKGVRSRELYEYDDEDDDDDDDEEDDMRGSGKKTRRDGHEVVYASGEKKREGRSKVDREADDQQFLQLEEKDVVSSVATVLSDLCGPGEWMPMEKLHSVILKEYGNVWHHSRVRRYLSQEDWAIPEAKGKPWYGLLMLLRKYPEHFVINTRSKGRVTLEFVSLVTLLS
As to the kind of experiment: isothermal titration calorimetry (ITC) with recombinant protein. The format is binding. (ITC needs no label: the signal is the heat of the interaction.)

Take `O=P(O)(O)O[C@H]1[C@H](OP(=O)(O)O)[C@@H](OP(=O)(O)O)[C@H](OP(=O)(O)OP(=O)(O)O)[C@@H](OP(=O)(O)O)[C@H]1OP(=O)(O)O` [compound 4, 4-PP-InsP5]: the Kd is 4.9 ± 2.24 µM. As for `O=P(O)(O)O[C@H]1[C@H](OP(=O)(O)O)[C@@H](OP(=O)(O)O)[C@H](OP(=O)(O)O)[C@@H](OP(=O)(O)O)[C@H]1OP(=O)(O)O` [compound 6, InsP6], the Kd is more than 100 µM.
